Data on 35 molecules can be found in PubChem BioAssay (NCI).

Holding throughout (experiment): inhibition of tumour cell growth, NCI panel, 48 h
Assay [1] concerns MDA-N.
Assay [2] relates to OVCAR-4 ovarian.
Assay [3] relates to OVCAR-5 ovarian.
The test system of assay [4] is OVCAR-8 ovarian.
Assay [5] relates to UO-31 renal.

Several values for one entry are separate records, joined by “and”; a condition that tells them apart may be missing. Equal values may be shown once.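 Following 48 hours of exposure in 96-well plates, responses at five concentrations were used to interpolate endpoints linearly. Abbreviation: GI50, concentration required for 50% inhibition of growth. TGI denotes the concentration required for complete inhibition of growth.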 *1 amine or outer side, *2 acyl side, *3 side chain or, on linkers, in order; H or OH if unused. Where a SMILES comes first, the peptide text is derived from it. Bridges are numbered along the chain shown (N, C = ends). [ ]: non-standard residue; d: D form. X59 = COc1c(N[*:1])cccc1C(=O)O[C@H](C(=O)[C@H](C)C(=O)[*:2])C(C)C; X58 = CC(C)C[C@H](C(=O)[*:2])C(C)C(=O)C1CCCN1[*:1]; NMeY = CN[C@@H](Cc1ccc(O)cc1)C(=O)O; Lac = C[C@H](O)C(=O)O A value given as a limit tells only on which side of the number the result lay.

As for `CC1(Cc2cc3c(cc2C2(c4ccc([N+](=O)[O-])cc4)OCCO2)OCO3)OCCO1`, the TGI in assay [1], in assay [2], in assay [3], in assay [4] and in assay [5] was above 100 µM throughout.

Consider `C=CCN1C(=O)/C(=C/c2ccc(OC)cc2)N=C1SC1OC(COC(C)=O)C(OC(C)=O)C(OC(C)=O)C1OC(C)=O` (stereo unspecified), for which the TGI in assay [1] was above 100 µM; in assay [2], 15 µM and > 100 µM; in assay [3], 39.7 µM and > 100 µM; in assay [4], above 100 µM. Further, the GI50 in assay [3] was 19.3 µM and 56.3 µM; in assay [4], 13.1 µM and 54.1 µM.

Regarding `O=C(/C=C/c1ccc(O)cc1)c1cc(-c2cc(CCC(=O)c3ccc(O)cc3O)ccc2O)c(O)cc1O`, the TGI in assay [1], in assay [2], in assay [3], in assay [4] and in assay [5] was above 50 µM each time.

`COc1ccc2c(c1)C1c3ccccc3CCN1CCC2` (stereo unspecified): the TGI in assay [2], in assay [3], in assay [4] and in assay [5] was above 100 µM in each case.

On to `N#CCN1CCN(CC#N)CCN(CC#N)CCN(CC#N)CC1`, for which the TGI in assay [1], in assay [2], in assay [3], in assay [4] and in assay [5] was above 100 µM each time.

Turning to `O=[N+]([O-])c1cc2ccc1OCc1cccc(n1)COc1ccc(cc1[N+](=O)[O-])C=NCCCCCCCCN=C2`, the TGI in assay [1], in assay [2], in assay [3], in assay [4] and in assay [5] was above 100 µM each time.

Regarding `COc1ccc(C[C@H]2C(=O)O[C@H](C)[C@H](NC(=O)[C@@H](CC(C)C)C(C)C(=O)C3CCCN3C(=O)[C@H](C)O)C(=O)Nc3cccc(c3OC)C(=O)O[C@@H](C(C)C)C(=O)[C@H](C)C(=O)N[C@@H](CC(C)C)C(=O)N3CCC[C@H]3C(=O)N2C)cc1` (stereo partly specified) (H-[Lac][X58]T[X59]LP[NMeY](Me); ester 3-C), the TGI in assay [1], in assay [2], in assay [3], in assay [4] and in assay [5] was above 12.5 µM each time.

Turning to `C=CC[C@@]12CCC(=O)C=C1CCCC2=O`, the TGI in assay [1], in assay [2], in assay [3] and in assay [5] was above 100 µM throughout.

Turning to `COc1cccc(N2C(=O)C3c4[nH]c5ccc(C)cc5c4C4CCC(C)CC4C3C2=O)c1` (stereo unspecified), the TGI in assay [1], in assay [3], in assay [4] and in assay [5] was above 100 µM each time.

As for `CC(C)(C)OC(=O)NC(Cc1ccc(OCc2ccccc2)cn1)C(=O)O` (stereo unspecified), the TGI in assay [1], in assay [2], in assay [3], in assay [4] and in assay [5] was above 100 µM each time.

As for `CC(=O)c1sc2n(C)c(=O)c3ccccc3[n+]2c1C`, the TGI in assay [1], in assay [2], in assay [3], in assay [4] and in assay [5] was above 100 µM throughout.

Turning to `C=C1C(=O)OC2/C=C(\C)CC/C=C(\C)CC(OC(=O)/C(=C/CO)CO)[C@@H]12` (stereo partly specified), the TGI in assay [1] turned out to be 20.2 µM; in assay [2], 27.5 µM; in assay [3], 31.3 µM; in assay [4], 4.07 µM; in assay [5], 23.9 µM.

For the molecule `O=C(/N=C1/OC(CN2CCOCC2)CN1C(=O)Nc1ccccc1)Nc1ccccc1` (stereo unspecified), the TGI in assay [1], in assay [2], in assay [3], in assay [4] and in assay [5] was above 100 µM each time.

Turning to `O=C1/C(=C/c2ccc(OC(=O)c3ccc(Cl)cc3)cc2)CCC/C1=C\c1ccc(OC(=O)c2ccc(Cl)cc2)cc1`, the TGI in assay [1], in assay [2], in assay [3], in assay [4] and in assay [5] was above 100 µM in each case.

With `Cc1ncc([N+](=O)[O-])n1CCNC(=O)Cn1ccnc1[N+](=O)[O-]`, the TGI in assay [1], in assay [3], in assay [4] and in assay [5] was above 100 µM throughout.

For `Cn1nc(S(N)(=O)=O)s/c1=N/S(=O)(=O)c1ccc(N)cc1`, the TGI in assay [2], in assay [3], in assay [4] and in assay [5] was above 100 µM throughout.

On to `CC(C)=CC[C@H]1C[C@@]2(CC=C(C)C)C(=O)/C(=C(/O)c3ccccc3)C(=O)[C@](CC=C(C)C)(C2=O)C1(C)C`, for which the TGI amounted to 20.1 µM in assay [1]; 26.4 µM in assay [2]; 19.5 µM in assay [3]; 35 µM in assay [4]; 13.3 µM in assay [5].

In the case of `Cc1ccc2nc(-c3ccc(-c4nc5ccc(C)cc5o4)c(O)c3)oc2c1`, the TGI in assay [1], in assay [3], in assay [4] and in assay [5] was above 100 µM throughout.

For the molecule `COc1ccc2cc(/C=N\NC(=O)Nc3ccc([N+](=O)[O-])cc3)ccc2c1`, the TGI in assay [1] is 18.5 µM; in assay [2] it was 15.9 µM; in assay [3] it was 48.6 µM; in assay [4] it was 16.9 µM; in assay [5] it was 18.8 µM.

`COC(=O)/C=C/c1ccc2c(c1)[C@H](C(=O)OC)[C@@H](c1ccc(O)cc1)O2`: the TGI in assay [1] was 95.7 µM; in assay [2] it was above 100 µM; in assay [3] it was above 100 µM; in assay [4], above 100 µM; in assay [5], 70 µM.

`CC(=O)c1c2c(cc3c1CC1(C3)Cc3cc4c(c(C(C)=O)c3C1)CCCC4)CCCC2`: the TGI in assay [1] was above 100 µM; in assay [2], above 100 µM; in assay [3], above 100 µM; in assay [4], above 100 µM; in assay [5] it was 0.314 µM.

As for `COc1ccc(OC2OC(CO)C(O)C(O)C2O)cc1` (stereo unspecified), the TGI in assay [1], in assay [3], in assay [4] and in assay [5] was above 100 µM in each case.

As to `Brc1ccc(N=Nc2ccc3ccccc3n2)cc1`, the TGI was above 100 µM in assay [1], above 100 µM in assay [3], above 100 µM in assay [4] and 27.5 µM in assay [5].

Take `N/N=C(/CC(O)(C(F)(F)F)C(F)(F)F)c1ccccc1`: the TGI in assay [1], in assay [2], in assay [3] and in assay [4] was above 10 µM throughout.

Regarding `O=C(CSc1nc2ccc(I)cc2c(=O)n1Cc1ccccc1)NN1C(=O)CSC1c1ccccc1` (stereo unspecified), the TGI in assay [1] was above 100 µM; in assay [2] it was 76.1 µM; in assay [3] it was above 100 µM; in assay [4], above 100 µM.

Regarding `CCN(CC)c1ccc2cc(-c3csc(C)n3)c(=O)oc2c1`, the TGI in assay [1], in assay [2], in assay [3] and in assay [5] was above 100 µM each time.

With `COC(=O)C1Cc2c([nH]c3ccccc23)-c2[nH]c3ccccc3c2CC(NC(C)=O)C(=O)NCC(=O)NCC(=O)N1` (stereo unspecified), the TGI in assay [1], in assay [3], in assay [4] and in assay [5] was above 100 µM in each case.

Turning to `Cc1ccc(S(=O)(=O)OI(O)CC(F)(F)F)cc1`, the TGI in assay [2], in assay [3], in assay [4] and in assay [5] was above 100 µM each time.

With `CCNC1=C(NC(=O)c2ccc(OC)cc2)C(=O)c2ccccc2C1=O`, the TGI in assay [1], in assay [2], in assay [3] and in assay [4] was above 100 µM in each case.

As to `N#Cc1nc(-c2ccc(-c3nc(C#N)c(N)o3)cc2)oc1N`, the TGI in assay [1], in assay [2], in assay [4] and in assay [5] was above 10 µM each time.

Turning to `COC(=O)/C=C1/OC(c2ccc(C)cc2C)=CC1=O`, the TGI in assay [1] was determined as 36.4 µM; in assay [3] it was 31.7 µM; in assay [4] it was 37.4 µM; in assay [5] it was 30.5 µM.

For `COc1ccc2oc(=O)c(-c3csc(-c4ccccc4)n3)cc2c1`, the TGI is above 100 µM in assay [1], 97.9 µM in assay [2], above 100 µM in assay [3] and 47.1 µM in assay [5].

Turning to `O=c1cc(-c2ccc3ccccc3c2)[nH]c2ncccc12`, the TGI in assay [2], in assay [3], in assay [4] and in assay [5] was above 100 µM throughout.

With `Cc1ccc(/C=C2\CCCCCC2=O)cc1`, the TGI in assay [1], in assay [2], in assay [3] and in assay [5] was above 100 µM in each case.

For `Cc1ccccc1C1CC(=O)CC(c2ccccc2C)C12C(=O)NC(=S)NC2=O` (stereo unspecified), the TGI in assay [1] is above 100 µM; in assay [2] it was above 100 µM; in assay [3] it was above 100 µM; in assay [5], 43.2 µM.
